From patent US10517889B2, “Modulators of SMAD7 expression” (Ionis Pharmaceuticals, Inc., priority 2017, dated 2019) come the findings set out here.

Strand notation (5' to 3'): a small letter for the sugar, then the base; units joined by * are phosphorothioate-linked, units joined directly phosphodiester-linked; [ ] holds rarer units or linkages, { } end groups; capitals alone tell only the bases. k = constrained ethyl (cEt); [5mC] = 5-methylcytosine; d = 2'-deoxy (DNA)

The first data set relates to human SMAD7 mRNA. Briefly: Antisense inhibition of human SMAD7 mRNA expression in Hep3B cells by 3-10-3 cEt gapmers, 10,000 nM, electroporation (Example 2). In kind it is cell-based. The note with it: Hep3B cells, 10,000 nM antisense oligonucleotide, electroporation, approximately 24 hours, RT-PCR primer probe set RTS5062, relative to untreated control cells. The essentials: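 qRT-PCR (RTS5062) of SMAD7 mRNA, normalised to RIBOGREEN total RNA, gave percent inhibition relative to untreated controls. Hep3B cells at 20,000 per well received 10,000 nM oligonucleotide by electroporation, with ~24 h treatment.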
On to “800029 (k[5mC]*k[5mC]*kT*dG*dA*dA*dT*d[5mC]*dG*dG*dG*d[5mC]*d[5mC]*k[5mC]*kA*k[5mC]; antisense) [compound 800029]”, for which the % Inhibition – broadly, how much of the control response was suppressed – worked out at 0%.
Still for that read-out and setting: in the case of “800030 (kA*kA*kA*d[5mC]*dA*d[5mC]*dA*dG*dT*dT*d[5mC]*d[5mC]*d[5mC]*kT*kG*kA; antisense) [compound 800030]” it was 0%; in that of “800032 (kG*kA*kA*dT*dT*d[5mC]*d[5mC]*d[5mC]*d[5mC]*dG*d[5mC]*d[5mC]*dA*kT*kT*kT; antisense) [compound 800032]”, 0%.
On the same count and under the same terms, in the case of “800033 (k[5mC]*kA*k[5mC]*dT*dA*d[5mC]*dA*dG*dA*dG*dA*dT*dT*k[5mC]*k[5mC]*k[5mC]; antisense) [compound 800033]” it was 52%.
The same measure, in the same setting: for “800034 (k[5mC]*k[5mC]*kG*d[5mC]*dA*d[5mC]*dG*dA*d[5mC]*dA*dT*d[5mC]*d[5mC]*k[5mC]*k[5mC]*k[5mC]; antisense) [compound 800034]” the value was 47%.
Consider “800035 (k[5mC]*kA*kA*dA*dG*dG*d[5mC]*d[5mC]*d[5mC]*d[5mC]*dT*d[5mC]*dG*kA*kA*k[5mC]; antisense) [compound 800035]”, for which the “% Inhibition” value is reported as 34%.
On the same count and under the same terms, in the case of “800036 (kG*kT*kT*dA*dG*dG*dA*d[5mC]*dA*dG*d[5mC]*dT*d[5mC]*k[5mC]*kA*kG; antisense) [compound 800036]” it was 38%; in that of “800037 (k[5mC]*kA*k[5mC]*d[5mC]*dA*dG*d[5mC]*dA*dG*d[5mC]*d[5mC]*dT*d[5mC]*kT*kG*kT; antisense) [compound 800037]”, 0%; in that of “800038 (kT*kG*k[5mC]*dT*d[5mC]*d[5mC]*dT*d[5mC]*d[5mC]*d[5mC]*dT*d[5mC]*dG*k[5mC]*kT*kG; antisense) [compound 800038]”, 2%.
The same measure, in the same setting: for “800049 (antisense kA*kA*k[5mC]*dA*dA*dA*d[5mC]*d[5mC]*dT*dG*dG*d[5mC]*d[5mC]*kT*kG*kG) [compound 800049]” the value was 7%.
On the same count and under the same terms, in the case of “800050 (antisense kG*k[5mC]*kT*dT*dA*dT*dT*dT*dT*d[5mC]*d[5mC]*d[5mC]*dA*kA*kT*kT) [compound 800050]” it was 10%; in that of “800051 (antisense k[5mC]*kA*kG*d[5mC]*dA*d[5mC]*dA*dT*d[5mC]*d[5mC]*dA*d[5mC]*d[5mC]*k[5mC]*kT*kT) [compound 800051]”, 20%; in that of “800052 (antisense k[5mC]*k[5mC]*k[5mC]*dT*d[5mC]*dT*dT*d[5mC]*d[5mC]*dG*dG*dG*dA*kG*kG*k[5mC]) [compound 800052]”, 0%.
Regarding “800053 (antisense k[5mC]*kT*kA*d[5mC]*dA*d[5mC]*d[5mC]*dA*dA*dA*dG*dA*d[5mC]*k[5mC]*kT*kG) [compound 800053]”, the “% Inhibition” value was 63%.
Take “800054 (antisense kG*k[5mC]*kT*dA*d[5mC]*dA*d[5mC]*d[5mC]*dA*dA*dA*dG*dA*k[5mC]*k[5mC]*kT) [compound 800054]”: the “% Inhibition” value stood at 62%.
Same read-out and setting: for “800055 (antisense kA*kT*kA*dA*dA*d[5mC]*dT*dT*dG*dT*dG*dA*dG*k[5mC]*kG*k[5mC]) [compound 800055]” the value was 8%.
Still for that read-out and setting: for “800056 (antisense kT*kG*k[5mC]*dT*dA*dA*dT*dA*dA*dA*d[5mC]*dT*dT*kG*kT*kG) [compound 800056]” the value was 7%.
The same measure, in the same setting: in the case of “800057 (antisense kT*kT*k[5mC]*dA*d[5mC]*dT*dT*dG*dT*dT*dT*d[5mC]*dT*kG*k[5mC]*kA) [compound 800057]” it was 46%; in that of “800058 (antisense kT*k[5mC]*kA*dT*d[5mC]*dA*dG*dG*d[5mC]*dA*dT*dT*d[5mC]*kA*k[5mC]*kT) [compound 800058]”, 51%.
Consider “800069 (antisense k[5mC]*kA*kT*dG*dG*d[5mC]*dG*dG*dA*dA*dG*dA*dT*kG*kG*kG) [compound 800069]”, for which the “% Inhibition” value stood at 25%.
On the same count and under the same terms, in the case of “800070 (antisense k[5mC]*k[5mC]*kA*dT*dG*dG*d[5mC]*dG*dG*dA*dA*dG*dA*kT*kG*kG) [compound 800070]” it was 9%; in that of “800071 (antisense kT*kG*kT*dA*dT*dT*dT*dG*dT*dT*dA*dA*d[5mC]*kA*kA*kA) [compound 800071]”, 2%; in that of “800072 (antisense kG*kA*k[5mC]*dT*dT*dG*dG*dG*dA*d[5mC]*d[5mC]*dA*dT*kA*kA*kA) [compound 800072]”, 0%.
The same measure, in the same setting: for “800073 (antisense kT*kA*kA*dG*dT*dA*dG*dG*dA*dG*d[5mC]*d[5mC]*dA*kG*k[5mC]*kG) [compound 800073]” the value was 39%.
For “800074 (antisense kG*kG*kG*d[5mC]*dA*dT*dT*d[5mC]*dT*dG*dA*d[5mC]*dT*k[5mC]*k[5mC]*kT) [compound 800074]”, the “% Inhibition” value was 33%.
The same measure, in the same setting: in the case of “800075 (antisense kT*kA*kA*dT*dT*dT*dT*d[5mC]*d[5mC]*dT*d[5mC]*dA*dA*k[5mC]*kA*kG) [compound 800075]” it was 55%; in that of “800076 (antisense k[5mC]*kG*k[5mC]*dT*dT*d[5mC]*d[5mC]*d[5mC]*dT*dA*d[5mC]*dA*d[5mC]*kA*kG*kT) [compound 800076]”, 25%.
Same read-out and setting: for “800077 (antisense k[5mC]*k[5mC]*kT*dT*dA*dA*d[5mC]*dA*dA*dA*dG*d[5mC]*dT*kT*k[5mC]*k[5mC]) [compound 800077]” the value was 36%; for “800078 (antisense kA*k[5mC]*k[5mC]*dT*dT*dA*dA*d[5mC]*dA*dA*dA*dG*d[5mC]*kT*kT*k[5mC]) [compound 800078]”, 51%.

The same data set, now with this note: Hep3B cells, electroporation with 10,000 nM antisense oligonucleotide, approximately 24 hours, SMAD7 mRNA by RT-PCR (RTS5062), relative to untreated control cells.
As to “800039 (kG*kG*kT*dT*dA*dA*dT*dG*dG*d[5mC]*d[5mC]*d[5mC]*dA*kG*k[5mC]*k[5mC]; antisense) [compound 800039]”, the “% Inhibition” value came to 27%.
As for “800040 (k[5mC]*kG*k[5mC]*d[5mC]*dA*dG*d[5mC]*dA*dA*dT*dG*dT*dG*k[5mC]*kT*kG; antisense) [compound 800040]”, the “% Inhibition” value is 15%.
On to “800041 (kG*k[5mC]*k[5mC]*dA*d[5mC]*d[5mC]*dT*dA*dG*dG*d[5mC]*dA*dA*kG*kG*kG; antisense) [compound 800041]”, for which the “% Inhibition” value is given as 0%.
Same read-out and setting: for “800042 (kT*kG*kT*d[5mC]*dA*dG*d[5mC]*d[5mC]*dA*d[5mC]*d[5mC]*dT*dA*kG*kG*k[5mC]; antisense) [compound 800042]” the value was 0%; for “800043 (kT*kG*k[5mC]*d[5mC]*dA*dG*dG*d[5mC]*d[5mC]*dT*dG*dT*d[5mC]*kA*kG*k[5mC]; antisense) [compound 800043]”, 31%; for “800044 (k[5mC]*k[5mC]*kT*dG*dA*dG*dA*dT*d[5mC]*dG*dA*dG*dG*kT*kG*k[5mC]; antisense) [compound 800044]”, 18%.
Still for that read-out and setting: in the case of “800045 (kG*kA*kG*dG*dA*dG*d[5mC]*dA*dA*dG*dG*dG*dA*kG*kT*kG; antisense) [compound 800045]” it was 59%; in that of “800046 (kG*kG*k[5mC]*d[5mC]*dA*dA*d[5mC]*dA*dG*dG*dA*dG*dG*kA*kG*kG; antisense) [compound 800046]”, 42%; in that of “800047 (antisense kA*k[5mC]*k[5mC]*d[5mC]*dA*d[5mC]*dT*dG*dA*dA*dA*d[5mC]*d[5mC]*kT*kG*kG) [compound 800047]”, 28%.
The same measure, in the same setting: in the case of “800059 (antisense kA*kA*kA*dA*d[5mC]*dA*dA*dG*dA*d[5mC]*dA*dG*dG*kG*kA*k[5mC]) [compound 800059]” it was 31%; in that of “800060 (antisense k[5mC]*k[5mC]*k[5mC]*d[5mC]*dA*dA*dA*dA*dG*d[5mC]*dT*d[5mC]*d[5mC]*kA*k[5mC]*kA) [compound 800060]”, 5%.
Consider “800061 (antisense k[5mC]*k[5mC]*k[5mC]*dA*dA*dA*dT*dG*d[5mC]*d[5mC]*dT*dG*d[5mC]*k[5mC]*k[5mC]*k[5mC]) [compound 800061]”, for which the “% Inhibition” value was 44%.
On the same count and under the same terms, for “800062 (antisense k[5mC]*k[5mC]*k[5mC]*d[5mC]*dA*dA*dG*d[5mC]*dT*dG*dG*d[5mC]*d[5mC]*kT*kT*k[5mC]) [compound 800062]” the value was 25%; for “800063 (antisense kG*k[5mC]*k[5mC]*dA*dT*dA*d[5mC]*dA*dA*dA*dT*dG*dT*kG*k[5mC]*kA) [compound 800063]”, 0%.
Consider “800064 (antisense kA*kT*kG*dG*dA*dG*dG*dT*dG*d[5mC]*d[5mC]*d[5mC]*dG*kT*k[5mC]*kA) [compound 800064]”, for which the “% Inhibition” value came to 0%.
Still for that read-out and setting: in the case of “800065 (antisense kT*kT*kA*dA*dG*dT*dA*dG*d[5mC]*dA*dG*d[5mC]*d[5mC]*kA*kG*kT) [compound 800065]” it was 55%; in that of “800067 (antisense kA*kG*kG*dA*d[5mC]*d[5mC]*dT*dG*dG*dG*dA*dA*d[5mC]*k[5mC]*k[5mC]*kA) [compound 800067]”, 51%; in that of “800068 (antisense kA*k[5mC]*kA*d[5mC]*dT*dA*dA*d[5mC]*dT*dG*dG*d[5mC]*dT*k[5mC]*k[5mC]*kA) [compound 800068]”, 34%.
Still for that read-out and setting: for “800079 (antisense kT*kA*k[5mC]*d[5mC]*dT*dT*dA*dA*d[5mC]*dA*dA*dA*dG*k[5mC]*kT*kT) [compound 800079]” the value was 61%.
Still for that read-out and setting: for “800080 (antisense kG*kG*kG*d[5mC]*dT*dA*d[5mC]*d[5mC]*dT*dT*dA*dA*d[5mC]*kA*kA*kA) [compound 800080]” the value was 14%.
